Measurements: ChEMBL document CHEMBL2380196, “New anticancer active and selective phenylene-bisbenzothiazoles: synthesis, antiproliferative evaluation and DNA binding” (Eur J Med Chem, 2013)
Calls of active or inactive are those of the source. No cut-off for these calls is given here.

Legend:
[1] = biological target: T1, DNA topoisomerase 1 (Homo sapiens) (UniProt P11387); assay: Inhibition of human topoisomerase 1-mediated supercoiled pUC19 DNA relaxation at 1 to 50 uM after 45 mins by agarose gel electrophoresis
T1 sequence (whole entry): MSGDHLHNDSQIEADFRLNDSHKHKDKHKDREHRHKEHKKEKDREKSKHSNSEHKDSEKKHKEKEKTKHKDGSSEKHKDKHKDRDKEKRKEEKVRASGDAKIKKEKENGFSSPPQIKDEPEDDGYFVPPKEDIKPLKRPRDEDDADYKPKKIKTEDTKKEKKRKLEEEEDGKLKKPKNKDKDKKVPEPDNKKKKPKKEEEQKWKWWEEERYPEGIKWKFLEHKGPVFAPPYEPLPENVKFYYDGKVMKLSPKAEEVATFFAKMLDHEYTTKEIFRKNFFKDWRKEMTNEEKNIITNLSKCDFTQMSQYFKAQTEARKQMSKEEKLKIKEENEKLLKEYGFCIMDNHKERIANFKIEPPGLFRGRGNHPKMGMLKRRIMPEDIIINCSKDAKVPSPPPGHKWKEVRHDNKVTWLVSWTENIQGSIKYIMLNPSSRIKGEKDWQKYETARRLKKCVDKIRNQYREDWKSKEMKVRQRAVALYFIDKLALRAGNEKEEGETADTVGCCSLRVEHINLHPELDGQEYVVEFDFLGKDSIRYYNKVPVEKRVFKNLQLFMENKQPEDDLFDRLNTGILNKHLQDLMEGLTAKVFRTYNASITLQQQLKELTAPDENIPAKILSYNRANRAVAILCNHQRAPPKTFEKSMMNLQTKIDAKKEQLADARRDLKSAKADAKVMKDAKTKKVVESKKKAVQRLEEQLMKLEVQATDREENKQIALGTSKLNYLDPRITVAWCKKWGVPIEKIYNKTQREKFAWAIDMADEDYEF

DNA [2] = assay: Binding affinity to calf thymus DNA at 50 uM by Circular dichroism spectra analysis; type: nucleic-acid assay; conditions: Bos taurus
DNA [3] = assay: Binding affinity to calf thymus DNA assessed as change in melting temperature at 0.5 drug/DNA ratio by spectrophotometer analysis; type: nucleic-acid assay; conditions: Bos taurus
DNA [4] = assay: Binding affinity to calf thymus DNA assessed as hypochromic effect at 20 uM by UV/Vis spectra analysis; type: nucleic-acid assay; conditions: Bos taurus
HeLa = assay: Antiproliferative activity against human HeLa cells after 72 hrs by MTT assay; type: functional, cell-based; conditions: for CC50: read-out: LC50 (the source's name)
[5] = (§1) Antiproliferative activity against human WI38 cells after 72 hrs by MTT assay; type: cell-based, WI-38; conditions: human, WI-38 cells; read-out: LC50
WI-38 = assay: as §1; type: cell-based; conditions: Homo sapiens, WI-38, 72 h
SW-620 = assay: Antiproliferative activity against human SW620 cells after 72 hrs by MTT assay; type: functional, cell-based; conditions: SW-620, 72 h; for CC50: read-out: LC50 (the source's name)
MIA PaCa-2 = assay: Antiproliferative activity against human MIAPaCa2 cells after 72 hrs by MTT assay; type: functional, cell-based; conditions: MIA PaCa-2, 72 h; for CC50: read-out: LC50 (the source's name)
SK-BR-3 = assay: Antiproliferative activity against human SKBR3 cells after 72 hrs by MTT assay; type: functional, cell-based; conditions: SK-BR-3, 72 h; for CC50: read-out: LC50 (the source's name)
MCF7 = assay: Antiproliferative activity against human MCF7 cells after 72 hrs by MTT assay; type: functional, cell-based; conditions: MCF7, 72 h; for CC50: read-out: LC50 (the source's name)
[6] = biological target: DNA topoisomerase 2-alpha (Homo sapiens) (UniProt P11388); assay: Inhibition of human topoisomerase 2-mediated supercoiled pUC19 DNA relaxation assessed as formation of open circle form after 45 mins using ethidium bromide staining by agarose gel electrophoresis
Sequence of DNA topoisomerase 2-alpha (Homo sapiens) (P11388 whole entry): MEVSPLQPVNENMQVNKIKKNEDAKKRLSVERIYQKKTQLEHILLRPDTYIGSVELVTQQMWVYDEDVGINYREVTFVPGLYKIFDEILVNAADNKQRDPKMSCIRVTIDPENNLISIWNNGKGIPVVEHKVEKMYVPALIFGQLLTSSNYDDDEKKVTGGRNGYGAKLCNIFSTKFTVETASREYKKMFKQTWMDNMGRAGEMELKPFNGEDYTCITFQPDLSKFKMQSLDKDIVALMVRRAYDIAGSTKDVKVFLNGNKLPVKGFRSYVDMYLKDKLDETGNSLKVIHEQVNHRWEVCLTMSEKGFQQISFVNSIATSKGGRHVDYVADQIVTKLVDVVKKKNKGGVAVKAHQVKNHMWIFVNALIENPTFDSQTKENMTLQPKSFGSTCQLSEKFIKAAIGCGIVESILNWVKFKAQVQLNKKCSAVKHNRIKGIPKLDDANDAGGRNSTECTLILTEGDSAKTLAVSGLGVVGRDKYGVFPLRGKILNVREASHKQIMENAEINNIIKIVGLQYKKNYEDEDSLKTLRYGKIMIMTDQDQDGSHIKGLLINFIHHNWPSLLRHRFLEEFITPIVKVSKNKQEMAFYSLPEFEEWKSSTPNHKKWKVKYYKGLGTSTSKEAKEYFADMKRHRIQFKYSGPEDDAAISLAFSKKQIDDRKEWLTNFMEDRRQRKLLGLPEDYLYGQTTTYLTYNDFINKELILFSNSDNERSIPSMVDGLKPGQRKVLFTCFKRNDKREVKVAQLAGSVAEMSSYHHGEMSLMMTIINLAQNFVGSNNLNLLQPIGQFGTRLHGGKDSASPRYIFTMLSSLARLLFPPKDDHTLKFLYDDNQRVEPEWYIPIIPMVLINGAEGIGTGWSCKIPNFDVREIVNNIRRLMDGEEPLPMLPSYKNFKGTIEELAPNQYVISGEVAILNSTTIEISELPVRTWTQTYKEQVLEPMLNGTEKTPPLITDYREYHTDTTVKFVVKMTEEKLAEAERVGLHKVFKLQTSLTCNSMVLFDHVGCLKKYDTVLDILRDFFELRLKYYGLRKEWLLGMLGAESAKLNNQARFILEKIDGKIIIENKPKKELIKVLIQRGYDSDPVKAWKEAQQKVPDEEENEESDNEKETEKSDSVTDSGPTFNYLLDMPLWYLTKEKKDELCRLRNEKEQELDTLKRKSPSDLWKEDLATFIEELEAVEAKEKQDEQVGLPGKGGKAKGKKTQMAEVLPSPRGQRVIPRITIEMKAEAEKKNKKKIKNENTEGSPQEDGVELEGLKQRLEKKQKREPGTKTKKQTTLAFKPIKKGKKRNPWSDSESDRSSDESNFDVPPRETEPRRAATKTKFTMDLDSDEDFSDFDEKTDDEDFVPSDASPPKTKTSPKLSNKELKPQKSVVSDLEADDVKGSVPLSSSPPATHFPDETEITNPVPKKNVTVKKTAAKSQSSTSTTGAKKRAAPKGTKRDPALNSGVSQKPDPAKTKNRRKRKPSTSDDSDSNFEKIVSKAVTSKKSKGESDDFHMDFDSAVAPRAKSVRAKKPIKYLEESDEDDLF

[7] = biological target: T1, DNA topoisomerase 1 (Homo sapiens); assay: Inhibition of human topoisomerase 1-mediated supercoiled pUC19 DNA relaxation assessed as formation of open circle form after 45 mins using ethidium bromide staining by agarose gel electrophoresis
DNA [8] = assay: Binding affinity to calf thymus DNA assessed as change in melting temperature at 0.25 drug/DNA ratio by spectrophotometer analysis; type: nucleic-acid assay; conditions: Bos taurus

In the case of `c1ccc(-c2nc3ccc(C4=NCCN4)cc3s2)c(-c2nc3ccc(C4=NCCN4)cc3s2)c1`, the inhibition [1] is reported as “Active”, the Activity (DNA [2]) is reported as “Active” and the ΔTm (DNA [3]) is reported as 16.8 °C. For the same compound, the Activity (DNA [4]) was “Active”, the IC50 (HeLa) was 26.8 µM and the CC50 (HeLa) was 76.4 µM. The CC50 at 72 h [5] was 74.3 µM, the IC50 (WI-38) was 8.99 µM and the IC50 (SW-620) was 24.7 µM. It also gave a CC50 (SW-620) of 81.3 µM, an IC50 (MIA PaCa-2) of 14.6 µM and a CC50 (MIA PaCa-2) of 72.9 µM. It also gave an IC50 (SK-BR-3) of 1.86 µM, a CC50 (SK-BR-3) of 67.9 µM and an IC50 (MCF7) of 10.1 µM. It also gave a CC50 (MCF7) of 71.4 µM.

With `N=C(N)c1ccc2nc(-c3ccccc3-c3nc4ccc(C(=N)N)cc4s3)sc2c1` the Activity (DNA [2]) was “Active”, the ΔTm (DNA [3]) was 9.8 °C and the Activity (DNA [4]) was “Active”. The IC50 (HeLa) was 63.6 µM, the CC50 (HeLa) was > 100 µM and the CC50 at 72 h [5] was > 100 µM. The IC50 (WI-38) was 86.4 µM, the IC50 (SW-620) was > 100 µM and the CC50 (SW-620) was > 100 µM. For the same compound, the IC50 (MIA PaCa-2) was 44.8 µM, the CC50 (MIA PaCa-2) was > 100 µM and the IC50 (SK-BR-3) was 86.6 µM. For the same compound, the CC50 (SK-BR-3) was > 100 µM, the IC50 (MCF7) was 30.9 µM and the CC50 (MCF7) was > 100 µM.

In the case of `N=C(N)c1ccc2nc(-c3cccc(-c4nc5ccc(C(=N)N)cc5s4)c3)sc2c1`, the inhibition [6] is reported as “Active”, the inhibition [7] is reported as “Active” and the Activity (DNA [2]) is reported as “Active”. For the same compound, the ΔTm (DNA [8]) was 13.7 °C, the Activity (DNA [4]) was “Active” and the IC50 (HeLa) was > 100 µM. For the same compound, the CC50 (HeLa) was > 100 µM, the CC50 at 72 h [5] was 65.4 µM and the IC50 (WI-38) was 0.99 µM. The IC50 (SW-620) was 6.01 µM, the CC50 (SW-620) was > 100 µM and the IC50 (MIA PaCa-2) was > 100 µM. For the same compound, the CC50 (MIA PaCa-2) was > 100 µM, the IC50 (SK-BR-3) was 83.2 µM and the CC50 (SK-BR-3) was > 100 µM. The IC50 (MCF7) was 5.34 µM and the CC50 (MCF7) was > 100 µM.

With `N=C(N)c1ccc2nc(-c3ccc(-c4nc5ccc(C(=N)N)cc5s4)cc3)sc2c1` the inhibition [6] was “Active”, the inhibition [7] was “Active” and the Activity (DNA [2]) was “inactive”. The ΔTm (DNA [3]) was 3 °C, the Activity (DNA [4]) was “Active” and the IC50 (HeLa) was 9.6 µM. The CC50 (HeLa) was > 100 µM, the CC50 at 72 h [5] was > 100 µM and the IC50 (WI-38) was 41.9 µM. For the same compound, the IC50 (SW-620) was > 100 µM, the CC50 (SW-620) was > 100 µM and the IC50 (MIA PaCa-2) was 20.4 µM. For the same compound, the CC50 (MIA PaCa-2) was > 100 µM, the IC50 (SK-BR-3) was 8.55 µM and the CC50 (SK-BR-3) was > 100 µM. For the same compound, the IC50 (MCF7) was 9.01 µM and the CC50 (MCF7) was > 100 µM.
